Literature values in paper PMC8198792, “Prediction of Anticancer Peptides with High Efficacy and Low Toxicity by Hybrid Model Based on 3D Structure of Peptides” (International Journal of Molecular Sciences, 2021).
Read-outs that look alike come from different tables or passages of the source.

Tested on: cancer cell lines
Parameters: method as in 6 sources, ref CancerPPD [45] and SATPdb ||| ref CancerPPD/SATPdb ||| ref CancerPPD, SATPdb, Swissprot (PDB) ||| ref CancerPPD/SATPdb/Swissprot(PDB) ||| ref CancerPPD / SATPdb ||| ...
Details: cited from earlier work
Excerpt: Supplement ijms-22-05630-s001.zip/ACPs(seguence).xlsx, sheet "D1" | column: Activity || Supplement ijms-22-05630-s001.zip/ACPs(seguence).xlsx, sheet "D2" | column: Activity || Supplement ijms-22-05630-s001.zip/ACPs(seguence).xlsx, sheet "D3" | column: Activity || (+ 2 further places)

[1] = ACPs dataset D1, 1 = ACP (positive), 0 = non-ACP (negative), label taken from databases, ref CancerPPD [45] and SATPdb
[2] = ACPs dataset D4 (sheet "D4"), label 1 = ACP (CancerPPD ID), 0 = non-ACP (non-anticancer AMP, SATPdb ID), ref CancerPPD [45] and SATPdb
[3] = ACPs dataset D4 (sheet "D4"), label 1 = ACP, experimentally validated ACPs, ref CancerPPD [45] and SATPdb
[4] = ACPs dataset D5 (sheet "D5"), label 1 = ACP (positive set), sequences with CancerPPD/SATPdb ID, ref CancerPPD, SATPdb
[5] = ACPs dataset sheet D2, 1 = ACP (CancerPPD/SATPdb ID), 0 = non-ACP (Swissprot/PDB ID), ref CancerPPD, SATPdb, Swissprot (PDB)
[6] = ACPs dataset D5 (sheet "D5"), label 1 = ACP (positive set), 0 = non-ACP (negative set), ref CancerPPD [45] and SATPdb
[7] = ACPs dataset D3 (supplement sheet "D3"), 1 = ACP, 0 = non-ACP, ref CancerPPD [45] and SATPdb
[8] = ACPs dataset D3 (sheet "D3"), label 1 = ACP, 0 = non-ACP, ref CancerPPD/SATPdb
[9] = ACPs dataset D4 (sheet "D4"), label 1 = ACP, 0 = non-ACP, ref CancerPPD / SATPdb
[10] = ACPs dataset D5, sheet "D5", label 1 = ACP, 0 = non-ACP, ref CancerPPD [45] and SATPdb
[11] = ACPs dataset D1, label 1 = ACP, 0 = non-ACP (non-anticancer AMPs from SATPdb), ref CancerPPD/SATPdb
[12] = ACPs dataset D2 (supplement ACPs(seguence).xlsx, sheet D2), dataset label 1/0 (ACP / non-ACP), entries identified by Swissprot(PDB ID), ref CancerPPD/SATPdb/Swissprot(PDB)

Substance | Activity [1] | Activity [2] | Activity [3] | Activity [4] | Activity [5] | Activity [6] | also measured
SVLGTVKDLLIGAGKSAAQSVLTANSCKLSNSC [satpdb10581] | 0 | 0 |  |  |  |  | 
LSSTCILVLVKSTY [satpdb19063] | 1 |  | 1 | 1 | 1 |  | 
FIHHIFRGIVHAGRSIGRFLTG [2MCW NMR - A 1-22] |  |  |  |  | 0 | 0 | 
FLPFIARLAAKVFPSIICSVTKKC [satpdb10560] | 0 | 0 |  |  |  |  | 
rrrrrrrrGEDIIRNIARHLAQVGDSMDR [compound 4227] |  | 1 |  |  |  | 1 | Activity [7]: 1
FLSLIPSLVGGSISAFK [compound 3123] |  |  | 1 | 1 |  |  | Activity [7]: 1
ALALLOHALHOLALLAOHLAHOLALA [satpdb14515] |  |  |  |  |  |  | Activity [8]: 0; Activity [9]: 0; Activity [10]: 0
HGSTTLRDITV [satpdb28282] | 1 |  | 1 | 1 | 1 |  | 
GLFAVIKKVAKVIKKL [compound 4138] |  | 1 |  |  |  | 1 | Activity [7]: 1
GIGKFLHAAKKFAKAFVAEIMNS [compound 1354] |  | 1 |  |  |  | 1 | Activity [7]: 1
KGRGKRRRCKQRPSDCPRR [satpdb22253] | 1 |  | 1 | 1 | 1 |  | 
ISDYSIAMDKIRQQDFVNWLLAQKGKKSDWKHNITQ [satpdb11921] |  | 0 |  |  |  |  | Activity [11]: 0
GILLDKLKNFAKTAGKGVLQSLLNTASCKLSGQC [satpdb12360] |  | 0 |  |  |  |  | Activity [11]: 0
RGGRLCYCRRRFCVCVGR [compound 4251] |  | 1 |  |  |  | 1 | Activity [7]: 1
GTLPCGESCVWIPCISAVVGCSCKSKVCYKN [satpdb10694] | 0 | 0 |  |  |  |  | 
VSRRRRRRGGRRRR [satpdb11057] | 0 | 0 |  |  |  |  | 
LTFSDWWKLLAE [compound 5059] | 1 |  | 1 | 1 | 1 |  | 
MATAVYRCAKCGKEVELDLATAREVRCPYCGSKILYKPRPRVARRVKAI [4QIW X-ray 3.50 P/W 1-49] |  |  |  |  |  | 0 | Activity [12]: 0
GIGGVLLSAGKAALKGLAKVLAEKYAN [compound 4400] | 1 |  | 1 | 1 | 1 |  | 
AIGSILGALAKGLPTLISWIKNR [compound 4433] | 1 |  | 1 | 1 | 1 |  | 
VOLOfPVOLfP [satpdb12074] |  |  |  |  |  |  | Activity [8]: 0; Activity [9]: 0; Activity [10]: 0
LLGMIPLAISAISALSKL [compound 4453] | 1 |  | 1 | 1 | 1 |  | 
GAIKDALKGAAKTVAVELLKKAQCKLEKTC [satpdb13113] |  |  |  |  |  |  | Activity [11]: 0; Activity [9]: 0
KWKSFLKTFKSlKKTVLHTlLKAISS [compound 3756] |  | 1 |  |  |  | 1 | Activity [7]: 1
FHVPDDRPCINPGRCPLVPDATCTFVCKAADNDFGYECQHVWTFEGQRVGCYA [5MRV X-ray 1.85,C,1-53] |  |  |  |  |  |  | Activity [12]: 0; Activity [10]: 0
SDQGDVAEPKMHKTAPPFDFEAIPEEYLDDES [3B23 X-ray 2.40 C 1-32] |  |  |  |  | 0 | 0 | 
KKLLKWLKKLL [satpdb14598] |  |  |  |  |  |  | Activity [8]: 0; Activity [9]: 0; Activity [10]: 0
THRPPMWSPVWPGGGKLlLKlLkkLLKlLKKK [compound 4603] |  | 1 |  |  |  | 1 | Activity [7]: 1
LVPRGSRAGSPSGGPFCALARQPLTGARLMSGLFFALHET [satpdb15805] | 1 |  | 1 | 1 | 1 |  | 
